Experimental data from US8680159B2, “Bradykinin 1 receptor modulating compounds” (Gruenenthal GmbH, priority 2010, dated 2014).

Biological target: T1, human B1R receptor (CHO K1 cells stably transfected with the human B1R gene) (Homo sapiens, UniProt P46663)
T1 construct: expressed in transfected cells; host or cells: CHO K1 cells (Chinese hamster ovary), stably transfected
T1 sequence (P46663 1-353): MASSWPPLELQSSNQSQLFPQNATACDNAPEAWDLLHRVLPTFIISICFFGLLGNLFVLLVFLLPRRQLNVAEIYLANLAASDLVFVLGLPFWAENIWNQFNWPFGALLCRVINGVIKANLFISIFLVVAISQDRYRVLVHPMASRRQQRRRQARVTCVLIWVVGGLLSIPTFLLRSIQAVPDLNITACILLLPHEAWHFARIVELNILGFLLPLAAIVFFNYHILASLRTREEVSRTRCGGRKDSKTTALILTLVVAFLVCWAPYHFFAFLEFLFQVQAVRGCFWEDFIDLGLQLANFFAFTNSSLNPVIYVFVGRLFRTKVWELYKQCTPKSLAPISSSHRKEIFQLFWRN
Test: Functional study on the bradykinin receptor 1 (B1R), Ca2+ fluorescence (Fluo-4) FLIPR/Novostar assay, hB1R cells
Format: cell-based
Conditions: CHO-K1, read-out: % Inhibition (h-B1R) at 10 μM
Summary of the method: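 Stably transfected CHO K1 cells carrying human or rat B1R were Fluo-4 loaded and Ca2+ fluorescence read by FLIPR or Novostar. Compounds were added first at 10 μM for % activation, then the EC80 agonist was applied after 6-20 min (human: Lys-Des-Arg9-bradykinin; rat: Des-Arg9-bradykinin). % inhibition is relative to maximum achievable inhibition, and IC50 comes from concentration series.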

Row | inhibition at 10 µM | Compound
1 | 91% | Cc1cc(N2CCC(N(C)C(=O)c3ccc4c(c3)C(N(C)C(=O)c3c(Cl)cccc3C(F)(F)F)CC4)CC2)cc(C)n1 (centres unmarked) [CC_H-108, 3-[[2-Chloro-6-(trifluoromethyl)-benzoyl]-methyl-amino]-N-[1-(2,6-dimethyl-pyridin-4-yl)-piperidin-4-yl]-N-methyl-2,3-dihydro-1H-indene-5-carboxylic acid amide]
2 | 100% | Cc1cc(N2CCC(N(C)C(=O)c3ccc4c(c3)C(NC(=O)c3sccc3Cl)CC4)CC2)cc(C)n1 (centres unmarked) [CC_H-109, 3-Chloro-N-[6-[[1-(2,6-dimethyl-pyridin-4-yl)-piperidin-4-yl]-methyl-carbamoyl]-2,3-dihydro-1H-inden-1-yl]-thiophene-2-carboxylic acid amide]
3 | 100% | Cc1cc(N2CCC(N(C)C(=O)c3ccc4c(c3)C(NS(=O)(=O)c3c(Cl)cccc3C(F)(F)F)CC4)CC2)cc(C)n1 (centres unmarked) [CC_H-111, 3-[[[2-Chloro-6-(trifluoromethyl)-phenyl]sulfonyl]amino]-N-[1-(2,6-dimethyl-pyridin-4-yl)-piperidin-4-yl]-N-methyl-2,3-dihydro-1H-indene-5-carboxylic acid amide]
4 | 100% | Cc1cc(N2CCC(N(C)C(=O)c3ccc4c(c3)C(NC(=O)c3cnccc3C(F)(F)F)CC4)CC2)cc(C)n1 (centres unmarked) [CC_H-112, N-[6-[[1-(2,6-Dimethyl-pyridin-4-yl)-piperidin-4-yl]-methyl-carbamoyl]-2,3-dihydro-1H-inden-1-yl]-4-(trifluoromethyl)-pyridine-3-carboxylic acid amide]
5 | 99% | Cc1cc(N2CCC(N(C)C(=O)c3ccc4c(c3)C(NC(=O)c3c(C)cccc3C)CC4)CC2)cc(C)n1 (centres unmarked) [CC_H-115, 3-[(2,6-Dimethyl-benzoyl)amino]-N-[1-(2,6-dimethyl-pyridin-4-yl)-piperidin-4-yl]-N-methyl-2,3-dihydro-1H-indene-5-carboxylic acid amide]
6 | 92% | O=C(NCCC1CCN(c2ccncc2)CC1)c1ccc2c(c1)C(NC(=O)C1CCCCC1)CC2 (centres unmarked) [CC_H-116, 3-(Cyclohexanecarbonylamino)-N-[2-(1-pyridin-4-yl-piperidin-4-yl)-ethyl]-2,3-dihydro-1H-indene-5-carboxylic acid amide]
7 | 89% | Cc1cc(N2CCC(N(C)C(=O)c3ccc4c(c3)C(NC(=O)c3cncnc3)CC4)CC2)cc(C)n1 (centres unmarked) [CC_H-118, N-[6-[[1-(2,6-Dimethyl-pyridin-4-yl)-piperidin-4-yl]-methyl-carbamoyl]-2,3-dihydro-1H-inden-1-yl]-pyrimidine-5-carboxylic acid amide]
8 | 100% | Cc1cc(N2CCC(N(C)C(=O)c3ccc4c(c3)C(NC(=O)c3cc(F)ccc3Cl)CC4)CC2)cc(C)n1 (centres unmarked) [CC_H-119, 3-[(2-Chloro-5-fluoro-benzoyl)amino]-N-[1-(2,6-dimethyl-pyridin-4-yl)-piperidin-4-yl]-N-methyl-2,3-dihydro-1H-indene-5-carboxylic acid amide]
9 | 100% | Cc1cc(N2CCC(N(C)C(=O)c3ccc4c(c3)C(NC(=O)CCC3CCCC3)CC4)CC2)cc(C)n1 (centres unmarked) [CC_H-120, 3-(3-Cyclopentyl-propanoylamino)-N-[1-(2,6-dimethyl-pyridin-4-yl)-piperidin-4-yl]-N-methyl-2,3-dihydro-1H-indene-5-carboxylic acid amide]
10 | 100% | Cc1cc(N2CCC(N(C)C(=O)c3ccc4c(c3)C(NS(=O)(=O)Cc3ccccc3C(F)(F)F)CC4)CC2)cc(C)n1 (centres unmarked) [CC_H-121, N-[1-(2,6-Dimethyl-pyridin-4-yl)-piperidin-4-yl]-N-methyl-3-[[[2-(trifluoromethyl)-phenyl]-methylsulfonyl]amino]-2,3-dihydro-1H-indene-5-carboxylic acid amide]
11 | 100% | Cc1cc(N2CCC(N(C)C(=O)c3ccc4c(c3)C(NC(=O)CC(C)C)CC4)CC2)cc(C)n1 (centres unmarked) [CC_H-122, N-[1-(2,6-Dimethyl-pyridin-4-yl)-piperidin-4-yl]-N-methyl-3-(3-methyl-butanoylamino)-2,3-dihydro-1H-indene-5-carboxylic acid amide]
